# Tests used:
# [1] = bioavailability / absorption of nucleoside and prodrug; type: in vivo
# hepatitis C virus (HCV) = conditions: patients infected with hepatitis C virus
bioavailability ([1]; in vivo),Structure (SMILES),absorption ([1]; in vivo),reversion of prodrug in plasma ([1]; plasma),viral load (hepatitis C virus (HCV))
insufficient bioavailabilty,"[N-]=[N+]=NC1(CO)OC(n2ccc(N)nc2=O)C(O)C1O (stereo not shown) [II, 4-Amino-1-(5-azido-3,4-dihydroxy-5-hydroxymethyl-tetrahydro-furan-2-yl)-1H-pyrimidin-2-one, reference compound]",,,
,"CC(C)C(=O)OC[C@@]1(N=[N+]=[N-])O[C@@H](n2ccc(N)nc2=O)[C@H](OC(=O)C(C)C)[C@@H]1OC(=O)C(C)C.Cl [I, isobutyric acid (2R,3S,4R,5R)-5-(4-amino-2-oxo-2H-pyrimidin-1-yl)-2-azido-3,4-bis-iso-butyryloxy-tetrahydro-furan-2-ylmethyl ester; hydrochloride salt]",efficiently absorbed,revert to I in plasma,decrease the viral load

# From US7893037B2, “Pharmaceutical composition and process” (Roche Palo Alto LLC, priority 2007, dated 2011)
